Row | melting point [°C] | SMILES
1 | 204 | CCc1nc(-c2ccc(N3CCN(C(=O)c4ccccc4C(F)(F)F)CC3)nn2)no1 [Example 4, {4-[6-(5-ethyl-[1,2,4]oxadiazol-3-yl)pyridazin-3-yl]piperazin-1-yl}-(2-trifluoromethylphenyl)methanone]
2 | 175 | CCCCc1nc(-c2ccc(N3CCN(C(=O)c4ccccc4C(F)(F)F)CC3)nn2)no1 [Example 4.1, {4-[6-(5-butyl[1,2,4]oxadiazol-3-yl)pyridazin-3-yl]piperazin-1-yl}-(2-trifluoromethylphenyl)methanone]
3 | 122 to 125 | O=C(c1cc(F)ccc1C(F)(F)F)N1CCN(c2ccc(-c3ncc(-c4ccccc4)o3)nn2)CC1 [Example 12, (5-fluoro-2-trifluoromethylphenyl)-{4-[6-(5-phenyloxazol-2-yl)pyridazin-3-yl]piperazin-1-yl}methanone]
4 | 226 | CCCc1noc(-c2ccc(N3CCN(C(=O)c4ccccc4C(F)(F)F)CC3)nn2)n1 [Example 7, {4-[6-(3-propyl[1,2,4]oxadiazol-5-yl)pyridazin-3-YL]piperazin-1-yl}-(2-trifluoromethylphenyl)methanone]
5 | 164 | CCCCCc1noc(-c2ccc(N3CCN(C(=O)c4ccccc4C(F)(F)F)CC3)nn2)n1 [Example 7.1, {4-[6-(3-pentyl[1,2,4]oxadiazol-5-yl)pyridazin-3-yl]piperazin-1-yl}-(2-trifluoromethylphenyl)methanone]

— patent US7767677B2, “Heterocyclic derivatives and their use as stearoyl-CoA desaturase inhibitors” (Xenon Pharmaceuticals Inc., priority 2004, dated 2010)
